In patent US20240294508A1, “RIP1 MODULATORS INCLUDING AZETIDINE CYCLIC UREAS, PREPARATIONS, AND USES THEREOF” (SIRONAX LTD., priority 2021, published 2024):

Test system: HT-29 cells
Experiment: HT29 cells 0FBS assay in vitro: TNF-α/SMAC mimetic/zVAD-FMK induced necroptosis, CellTiter-Glo cell viability (RIP1 inhibitory activity)
Format: cell-based
Details: Homo sapiens, FBS free medium, TNF-α (10 ng/ml) + SMAC mimetic (6 uM) + zVAD-FMK (10 μM), 20 hours, geometric mean EC50
Source text: Protocol for HT29 Cells 0FBS Assay In Vitro
• Cell line: HT-29 (ATCC® HTB-38™) • Culture medium: McCOY's 5A, Gibco, Cat No. 16600-082 • FBS, Gibco, Cat No. 10099-141C • Trypsin: Gibco, Cat No. 25200-056 • DMSO: Sigma, Cat No. 67-68-5, 1L • Assay plate: Corning #3903 • Compound dilution plate: Corning #3357 • Inducers: TNFα, GenScript, Cat No. Z01001-50, • SmacM, Cat. No., HY-15989, MedChemExpress (MCE) • Z_VAD FMK, TargetMol, T6013 • Cell Titer-Glo® Luminescent Cell Viability Assay Kit: Promega, Cat No. G7573 • EnVision: PerkinElmer, 2105-0010
2. Cell Seeding of HT-29 Cells
1) HT-29 cells were checked every day to make sure they are healthy and growing as expected. They were split sub-culturing when were approximately 80% confluent.
2) First pre-warm the culture medium of McCOY's 5A medium (Gibco, Cat No. 16600-082) with 10% FBS (Gibco, Cat No. 10099-141C) in 37° C. water bath for at least 30 min.
3) Growing cells to desired level of confluency 80% in a T75 flask, aspirate the medium, and wash with warm PBS two times.
4) Add 2-3 ml fresh warm trypsin (Gibco, Cat No. 25200-056) solution. Transfer the flask to a 37° C. incubator.
5) After 5 minutes, tap the side of the flask, and examine the flask under a microscope for lifting. If necessary, return the cells to the incubator for an additional 5-10 minutes, with occasional tapping, until lifting is complete.
6) Quickly neutralize the trypsin reaction by adding 6-9 ml cell culture medium, then transfer the cells to sterile 15 ml conical tubes. Pellet the cells by centrifugation at 300×g for 7 minutes, then decant the supernatant.
7) Resuspend the cells in fresh cell culture medium. Do cell counting with hemocytometer.
8) Seed 100 μl of 5,000 cells into each well of the sterile 96-well cell culture plate (Corning 3903) and culture overnight at 37° C. with 5% CO2.
3. Compounds Titration and Treatment of HT-29 Cells
1) All batches of compounds (CPDs0 (e.g., compound 1-169) were dissolved in DMSO (Dimethyl sulfoxide) as 20 mM stock solution.
2) Take 3 ul 20 mM stock solution of CPDs to […] DMSO and mix well, continue the titration ratio of 1:3 (20 ul CPDs+40 ul DMSO), e.g., to give solutions of CPDS at 6.6 mM, 2.2 mM, etc., till the 10 points end.
3) Take out assay plates with HT-29 cells from incubator, remove all culture medium then wash 1 time with 1×PBS, and change fresh McCOY's 5A medium of FBS free with a cocktail of TNF-α (10 ng/ml), the SMAC mimetic (6 uM) and zVAD-FMK (10 μM) to stimulate the HT-29 cells to increase pRIPK1 levels and necroptosis.
4) Add 0.5 μL of the diluted compound to the corresponding 96-well assay plates.
5) Incubate the assay plates for 20 hours at 37° C. with 5% CO2.
4. Performing Cell Viability Detection of HT-29 Cells after Treated with Compounds
1) The CellTiter-Glo® Luminescent Cell Viability Assay was employed to detect the ATP levels of viable HT-29 cells.
2) Equilibrate the CellTiter-Glo® buffer and the lyophilized substrate to room temperature prior to use.
3) Resuspend the CellTiter-Glo® substrate with CellTiter-Glo® buffer, mix by gently vortexing to obtain a homogeneous solution.
4) Pipette 20 μl the enzyme/substrate mixture by multi-channel pipette into the 96-well assay plates from step 5) under the Compounds titration and treatment stage.
5) Place the plates on an orbital shaker and mix the contents for 3 minutes to induce cell lysis.
6) Then allow the plates to incubate at room temperature for 10 minutes to stabilize luminescent signal.
7) Read and record luminescence signal with EnVision.
8) The geometric mean EC50 of the compounds were calculated from 10 points response dose with duplicate. In Table 2, activity is provided as follows: +++=0.1 nM≤EC50<100 nM; ++=100 nM≤EC5 1000 nM; […].

Cn1ncc(F)c1-c1cc(OC2CN(C(=O)N3N=CC[C@H]3c3cc(F)cc(C#N)c3)C2)c(F)cn1 [Compound 5, (S)-3-fluoro-5-(1-(3-((5-fluoro-2-(4-fluoro-1-methyl-1H-pyrazol-5-yl)pyridin-4-yl)oxy)azetidine-1-carbonyl)-4,5-dihydro-1H-pyrazol-5-yl)benzonitrile]
EC50: 0.1 to 100 nM

Cc1nn(-c2cc(OC3CN(C(=O)N4N=CC[C@H]4c4cccc(F)c4)C3)c(F)cn2)c(C)c1C(=O)O [Compound 82, (S)-1-(5-fluoro-4-((1-(5-(3-fluorophenyl)-4,5-dihydro-1H-pyrazole-1-carbonyl)azetidin-3-yl)oxy)pyridin-2-yl)-3,5-dimethyl-1H-pyrazole-4-carb oxylic acid]
EC50: 0.1 to 100 nM

Cn1ncc(Cl)c1-c1cc(OC2CN(C(=O)N3N=CC[C@H]3c3cncc(C#N)c3)C2)c(F)cn1 [Compound 44]
EC50: 0.1 to 100 nM

Cc1cnn(C)c1-c1ncc(F)c(OC2CN(C(=O)N3N=CC[C@H]3c3cncc(C#N)c3)C2)n1 [Compound 33, (S)-5-(1-(3-((2-(1,4-dimethyl-1H-pyrazol-5-yl)-5-fluoropyrimidin-4-yl)oxy)azetidine-1-carbonyl)-4,5-dihydro-1H-pyrazol-5-yl)nicotinonitrile]
EC50: 0.1 to 100 nM

Cn1ncc(C(N)=O)c1-c1cc(OC2CN(C(=O)N3N=CC[C@H]3c3cc(F)cc(C#N)c3)C2)c(F)cn1 [Compound 10, (S)-5-(4-((1-(5-(3-cyano-5-fluorophenyl)-4,5-dihydro-1H-pyrazole-1-carbonyl)azetidin-3-yl)oxy)-5-fluoropyridin-2-yl)-1-methyl-1H-pyrazole-4-carboxamide]
EC50: 100 to 1000 nM

Cc1cncc(C2CC=NN2C(=O)N2CC(Oc3cc(-c4c(C)cnn4C)ncc3F)C2)c1 (stereo not drawn) [Compound 101, (3-((2-(1,4-dimethyl-1H-pyrazol-5-yl)-5-fluoropyridin-4-yl)oxy)azetidin-1-yl)(5-(5-methylpyridin-3-yl)-4,5-dihydro-1H-pyrazol-1-yl)methanone]
EC50: 0.1 to 100 nM

Cc1nn(-c2cc(OC3CN(C(=O)N4N=CC[C@H]4c4ccccc4)C3)c(F)cn2)c(C)c1C(N)=O [Compound 71, (S)-1-(5-fluoro-4-((1-(5-phenyl-4,5-dihydro-1H-pyrazole-1-carbonyl)azetidin-3-yl)oxy)pyridin-2-yl)-3,5-dimethyl-1H-pyrazole-4-carboxamide]
EC50: 0.1 to 100 nM

Cc1cnn(C)c1-c1cc(OC2CN(C(=O)N3N=CCC3c3cncs3)C2)c(F)cn1 (stereo not drawn) [Compound 91, (3-((2-(1,4-dimethyl-1H-pyrazol-5-yl)-5-fluoropyridin-4-yl)oxy)azetidin-1-yl)(5-(thiazol-5-yl)-4,5-dihydro-1H-pyrazol-1-yl)methanone]
EC50: 0.1 to 100 nM

Cc1nn(-c2cc(OC3CN(C(=O)N4N=CC[C@H]4c4cncc(F)c4)C3)c(F)cn2)c(C)c1C(N)=O [Compound 63, (S)-1-(5-fluoro-4-((1-(5-(5-fluoropyridin-3-yl)-4,5-dihydro-1H-pyrazole-1-carbonyl)azetidin-3-yl)oxy)pyridin-2-yl)-3,5-dimethyl-1H-pyrazole-4-carboxamide]
EC50: 100 to 1000 nM

Cn1ncc(Cl)c1-c1cc(OC2CN(C(=O)N3N=CC[C@H]3c3cncc(F)c3)C2)c(F)cn1 [Compound 43, (S)-(3-((2-(4-chloro-1-methyl-1H-pyrazol-5-yl)-5-fluoropyridin-4-yl)oxy)azetidin-1-yl)(5-(5-fluoropyridin-3-yl)-4,5-dihydro-1H-pyrazol-1-yl) methanone]
EC50: 0.1 to 100 nM

Cc1cnc(C2CC=NN2C(=O)N2CC(Oc3nc(-c4c(C)cnn4C)c(F)cc3F)C2)s1 (stereo not drawn) [Compound 129, (3-((6-(1,4-dimethyl-1H-pyrazol-5-yl)-3,5-difluoropyridin-2-yl)oxy)azetidin-1-yl)(5-(5-methylthiazol-2-yl)-4,5-dihydro-1H-pyrazol-1-yl)methanone]
EC50: 0.1 to 100 nM

Cc1cnn(C)c1-c1cc(OC2CN(C(=O)N3N=CCC3c3nc(C)c(C)s3)C2)c(F)cn1 (stereo not drawn) [Compound 144, (3-((2-(1,4-dimethyl-1H-pyrazol-5-yl)-5-fluoropyridin-4-yl)oxy)azetidin-1-yl)(5-(4,5-dimethylthiazol-2-yl)-4,5-dihydro-1H-pyrazol-1-yl)methanone]
EC50: 100 to 1000 nM

COc1ncccc1-c1ncc(F)c(OC2CN(C(=O)N3N=CC[C@H]3c3cc(F)cc(F)c3)C2)n1 [Compound 163, (S)-(5-(3,5-difluorophenyl)-4,5-dihydro-1H-pyrazol-1-yl)(3-((5-fluoro-2-(2-methoxypyridin-3-yl)pyrimidin-4-yl)oxy)azetidin-1-yl)methanone]
EC50: 0.1 to 100 nM

COc1ncccc1-c1cc(OC2CN(C(=O)N3N=CC[C@H]3c3cc(F)cc(F)c3)C2)c(F)cn1 [Compound 164, (S)-(5-(3,5-difluorophenyl)-4,5-dihydro-1H-pyrazol-1-yl)(3-((5-fluoro-2′-methoxy-[2,3′-bipyridin]-4-yl)oxy)azetidin-1-yl)methanone]
EC50: 0.1 to 100 nM

Cc1cc(-c2cc(OC3CN(C(=O)N4N=CC[C@H]4c4cncc(F)c4)C3)c(F)cn2)n(C)n1 [Compound 29, (S)-(3-((2-(1,3-dimethyl-1H-pyrazol-5-yl)-5-fluoropyridin-4-yl)oxy)azetidin-1-yl)(5-(5-fluoropyridin-3-yl)-4,5-dihydro-1H-pyrazol-1-yl)methanone]
EC50: 0.1 to 100 nM

Cc1n[nH]c(C)c1-c1cc(OC2CN(C(=O)N3N=CC[C@H]3c3cc(F)cc(C#N)c3)C2)c(F)cn1 [Compound 19, (S)-3-(1-(3-((2-(3,5-dimethyl-1H-pyrazol-4-yl)-5-fluoropyridin-4-yl)oxy)azetidine-1-carbonyl)-4,5-dihydro-1H-pyrazol-5-yl)-5-fluorobenzonitrile]
EC50: 0.1 to 100 nM

Cc1nc(C2CC=NN2C(=O)N2CC(Oc3cc(-c4c(C)cnn4C)ncc3F)C2)cs1 (stereo not drawn) [Compound 96, (3-((2-(1,4-dimethyl-1H-pyrazol-5-yl)-5-fluoropyridin-4-yl)oxy)azetidin-1-yl)(5-(2-methylthiazol-4-yl)-4,5-dihydro-1H-pyrazol-1-yl)methanone]
EC50: 0.1 to 100 nM

Cc1nc([C@@H]2CC=NN2C(=O)N2CC(Oc3cc(-c4c(C)cnn4C)ncc3F)C2)cs1 [Compound 120, (S)-(3-((2-(1,4-dimethyl-1H-pyrazol-5-yl)-5-fluoropyridin-4-yl)oxy)azetidin-1-yl)(5-(2-methylthiazol-4-yl)-4,5-dihydro-1H-pyrazol-1-yl)methanone]
EC50: 0.1 to 100 nM

CCn1nc(C)c(-c2cc(OC3CN(C(=O)N4N=CC[C@H]4c4cc(F)cc(C#N)c4)C3)c(F)cn2)c1C [Compound 52, (S)-3-(1-(3-((2-(1-ethyl-3,5-dimethyl-1H-pyrazol-4-yl)-5-fluoropyridin-4-yl)oxy)azetidine-1-carbonyl)-4,5-dihydro-1H-pyrazol-5-yl)-5-fluorobenzonitrile]
EC50: 0.1 to 100 nM

O=C(N1CC(Oc2cc(-c3ccc[nH]c3=O)ncc2F)C1)N1N=CC[C@H]1c1cc(F)cc(F)c1 [Compound 167, (S)-4-((1-(5-(3,5-difluorophenyl)-4,5-dihydro-1H-pyrazole-1-carbonyl)azetidin-3-yl)oxy)-5-fluoro-[2,3′-bipyridin]-2′(1′H)-one]
EC50: 0.1 to 100 nM

Cc1nn(-c2cc(OC3CN(C(=O)N4N=CC[C@H]4c4cccc(F)c4)C3)c(F)cn2)c(C)c1C(N)=O [Compound 73, (S)-1-(5-fluoro-4-((1-(5-(3-fluorophenyl)-4,5-dihydro-1H-pyrazole-1-carbonyl)azetidin-3-yl)oxy)pyridin-2-yl)-3,5-dimethyl-1H-pyrazole-4-carb oxamide]
EC50: 0.1 to 100 nM
